Reference: patent USRE36831E, “Iron-pyridone complexes for anemia” (priority 1983, dated 2000)
Like-named read-outs stand apart in the source and are kept apart here.

Experiments:
[1] = n-octanol/tris buffer, 100 µM, pH 7.4
Method: (§1) The partition coefficient Kpart, being the ratio (concentration of compound in n-octanol)/(concentration of compound in aqueous phase) on partition between n-octanol and aqueous tris hydrochloride (20 mM, pH 7.4; tris represents 2-amino-2-hydroxymethylpropane 1,3-diol), is measured at 20° C. for the 3:1 iron(III) complexes of each of the compounds listed in Table 1 and also for the iron-free compound (at 10^-4 M) by spectrophotometry. The solutions of the complexes are either produced by dissolving the pre-formed complex in the aqueous tris hydrochloride or are prepared in situ in the buffer by the admixture of a 3:1 molar ratio of the pyridone and ferric chloride, the pH thereafter being readjusted to 7.4 if necessary (the same product will be obtained in the buffer solution irrespective of whether the pyridone used is in a salt form or not). Acid washed glassware is used throughout and, following mixing of 5 ml of the 10^-4 M aqueous solution with 5 ml of n-octanol for 1 minute, the aqueous n-octanol mixture is centrifuged at 1,000 g for 30 seconds. The two resulting phases are separated for a concentration determination by spectrophotometry on each. For the free hydroxypyridones, the range 220-340 nm is used for concentration determinations whilst for the iron complexes the range 340-640 nm is used.

physchem = settings: n-octanol/tris buffer, pH 7.4
Method: as §1

[2] = Partition coefficient between n-octanol and aqueous tris hydrochloride (20 mM, pH 7.4) at 20° C.; settings: for Partition coefficient KOUT, free compound: 10^-4 M, n-octanol/tris hydrochloride 20 mM pH 7.4, 20° C.; for logD at 100 µM: n-octanol/tris buffer, pH 7.4; for Kpart values (in words): n-octanol partition
Method: as §1

inverted rat jejunal sac = assay: In vitro permeation of rat jejunal sac by iron complexes (iron uptake into serosal space); settings: relative to ferric chloride as 1; Krebs Ringer buffer, 37° C., up to 1 hour
Description: Rats (male Sprague Dawley, 60 g) were killed and the jejunum removed, everted and cut into three segments (4 cm length). […] The contents of the sac were counted for ^59 Fe and measured spectrophotometrically.

human erythrocytes = settings: pH 7.4
Method: The accumulation of iron by human erythrocytes which are associated with iron complexes of various of the compounds referred to in Example 1 was studied by incubating for 1 hour at 37° C. a 5% suspension of erythrocytes in a medium consisting of the ^59 Fe labelled iron complex (10^-3 M) in aqueous sodium chloride (130 mM) buffered to pH 7.4 by tris hydrochloride (2 ml) (the iron complex was prepared in situ by an analogous procedure to that described in Example 1). Following this period of incubation, an aliquot of the erythrocyte/medium mixture was placed above a layer of silcone oil and the erythrocytes separated by centrifugation through the oil. The ^59 Fe levels associated with the erythrocytes and the incubation medium were then counted.

haemoglobin = assay: Ability of complexes to bind to haemoglobin (elution profile of 59Fe label on PD-10 column); format: binding; settings: 59Fe-labelled 3:1 neutral complex, 1 mM
Method: The ability of the complexes of 1-acetyl-3-hydroxypyrid-2-one and 1-ethyl-3-hydroxy-6-hydroxymethylpyrid-4-one to bind to haemoglobin is investigated by studying the elution profile of a ^59 Fe label when a mixture of haemoglobin and the ^59 Fe-labelled 3:1 (pyridone:iron) neutral complex (at 1 mM concentration) is applied to a PD-10 column (Sephadex […] gel permeation column - Pharmacia).

apotransferrin = assay: Ability of iron complexes to donate iron to apotransferrin; format: biochemical; settings: apotransferrin 10^-4 M, complex 10^-4 M, tris 50 mM pH 7.4, 37° C., 10 minutes
Method: Apotransferrin (10^-4 M) and the iron complex of 1-ethyl-3-hydroxy-6-hydroxymethylpyrid-4-one (10^-4 M; prepared as described in Example 1) were incubated together in tris hydrochloride (50 mM, buffered to pH 7.4) at 37° C. for 10 minutes when a 1 ml aliquot was removed from the medium and added to a PD10 column. 0.5 ml fractions were collected directly into scintillation vials for counting. […] A similar value was obtained with the complex of 3-hydroxy-1-(2'-hydroxyethyl)-2-methylpyrid-4-one but with the complex of 1-acetyl-3-hydroxypyrid-2-one over 80% of the iron was removed within 10 minutes.

## 3-hydroxy-5-hydroxymethyl-1-methylpyrid-4-one
[1]
  Partition coefficient KOUT, free compound: 0.03

## Cc1c(O)c(=O)ccn1CCN [1-(2'-aminoethyl)-3-hydroxy-2-methylpyrid-4-one]
physchem
  logD at 100 µM: < -2.7

## Cc1c(O)c(=O)ccn1CCC(=O)O [1-(2'-carboxyethyl)-3-hydroxy-2-methylpyrid-4-one]
physchem
  logD at 100 µM: -0.347

## CC(=O)OCCCCCn1ccc(=O)c(O)c1C [1-(5'-acetoxypentyl)-3-hydroxy-2-methylpyrid-4-one]
physchem
  logD at 100 µM: -0.347

## CCCCNC(=O)Cn1cccc(O)c1=O [1-(N-butylcarbamoylmethyl)-3-hydroxypyrid-2-one]
[2]
  Partition coefficient KOUT, free compound: 1.89

## CCNC(=O)Cn1cccc(O)c1=O [1-(N-ethylcarbamoylmethyl)-3-hydroxypyrid-2-one]
[2]
  Partition coefficient KOUT, free compound: 0.12

## CC(=O)n1cccc(O)c1=O [1-acetyl-3-hydroxypyrid-2-one]
physchem
  logD at 100 µM: -0.26

## Cc1c(O)c(=O)ccn1CC(=O)O [1-carboxymethyl-3-hydroxy-2-methylpyrid-4-one]
physchem
  logD at 100 µM: < -2.7

## CCOC(=O)Cn1cccc(O)c1=O [1-ethoxycarbonylmethyl-3-hydroxypyrid-2-one]
physchem
  logD at 100 µM: -0.301

## CCn1cc(O)c(=O)cc1CO [1-ethyl-3-hydroxy-6-hydroxymethylpyrid-4-one]
physchem
  logD at 100 µM: -1.22

## Cc1c(O)c(=O)ccn1CCO [3-hydroxy-1-(2'-hydroxyethyl)-2-methylpyrid-4-one]
[2]
  logD at 100 µM: < -2.7

## Cc1c(O)c(=O)ccn1CCCCO [3-hydroxy-1-(4'-hydroxybutyl)-2-methylpyrid-4-one]
[2]
  logD at 100 µM: -0.854

## Cc1c(O)c(=O)ccn1CCCCCO [3-hydroxy-1-(5'-hydroxypentyl)-2-methylpyrid-4-one]
physchem
  logD at 100 µM: -0.553

## CNC(=O)Cn1cccc(O)c1=O [3-hydroxy-1-(N-methylcarbamoylmethyl)pyrid-2-one]
[2]
  Partition coefficient KOUT, free compound: 0.06

## CCCNC(=O)Cn1cccc(O)c1=O [3-hydroxy-1-(N-propylcarbamoylmethyl)-pyrid-2-one]
[2]
  Partition coefficient KOUT, free compound: 0.35

## CC(C)NC(=O)Cn1cccc(O)c1=O [3-hydroxy-1-[N-(2'-methylethyl)-carbamoylmethyl]-pyrid-2-one]
[2]
  Partition coefficient KOUT, free compound: 0.34

## COC(=O)Cn1cccc(O)c1=O [3-hydroxy-1-methoxycarbonylmethylpyrid-2-one]
physchem
  logD at 100 µM: -0.699

## [Cl][Fe]([Cl])[Cl] [FeCl3, ferric chloride]
Inverted rat jejunal sac
  Relative Iron Uptake: 1

## O=C([O-])[C@H](O)[C@@H](O)[C@H](O)[C@H](O)CO.O=C([O-])[C@H](O)[C@@H](O)[C@H](O)[C@H](O)CO.[Fe+2] [Fe^II gluconate]
Inverted rat jejunal sac
  Relative Iron Uptake: 1.6

## Cc1c([O-])c(=O)ccn1CCN.Cc1c([O-])c(=O)ccn1CCN.Cc1c([O-])c(=O)ccn1CCN.[Fe+3] [Fe^III complex of 1-(2'-aminoethyl)-3-hydroxy-2-methylpyrid-4-one]
Human erythrocytes
  Amount of complex entering erythrocytes: < 5 n.mole
[2]
  Kpart values (in words): low Kpart values

## Cc1c([O-])c(=O)ccn1CCC(=O)O.Cc1c([O-])c(=O)ccn1CCC(=O)O.Cc1c([O-])c(=O)ccn1CCC(=O)O.[Fe+3] [Fe^III complex of 1-(2'-carboxyethyl)-3-hydroxy-2-methylpyrid-4-one]
Human erythrocytes
  Amount of complex entering erythrocytes: 19 n.mole

## CCCCNC(=O)Cn1cccc([O-])c1=O.CCCCNC(=O)Cn1cccc([O-])c1=O.CCCCNC(=O)Cn1cccc([O-])c1=O.[Fe+3] [Fe^III complex of 1-(N-butylcarbamoylmethyl)-3-hydroxypyrid-2-one]
Human erythrocytes
  Amount of complex entering erythrocytes: 105 n.mole

## CC(=O)n1cccc([O-])c1=O.CC(=O)n1cccc([O-])c1=O.CC(=O)n1cccc([O-])c1=O.[Fe+3] [Fe^III complex of 1-acetyl-3-hydroxypyrid-2-one]
Human erythrocytes
  Amount of complex entering erythrocytes: 240 n.mole
haemoglobin
  haemoglobin binding ability: no detectable haemoglobin binding ability
apotransferrin
  iron removed from the iron complex: over 80%

## O=C(O)Cn1cccc([O-])c1=O.O=C(O)Cn1cccc([O-])c1=O.O=C(O)Cn1cccc([O-])c1=O.[Fe+3] [Fe^III complex of 1-carboxymethyl-3-hydroxypyrid-2-one]
Human erythrocytes
  Amount of complex entering erythrocytes: < 5 n.mole

## CCOC(=O)Cn1cccc([O-])c1=O.CCOC(=O)Cn1cccc([O-])c1=O.CCOC(=O)Cn1cccc([O-])c1=O.[Fe+3] [Fe^III complex of 1-ethoxycarbonylmethyl-3-hydroxypyrid-2-one]
Human erythrocytes
  Amount of complex entering erythrocytes: 10 n.mole

## CCn1cc([O-])c(=O)cc1CO.CCn1cc([O-])c(=O)cc1CO.CCn1cc([O-])c(=O)cc1CO.[Fe+3] [Fe^III complex of 1-ethyl-3-hydroxy-6-hydroxymethylpyrid-4-one]
Human erythrocytes
  Amount of complex entering erythrocytes: 26 n.mole
haemoglobin
  haemoglobin binding ability: no detectable haemoglobin binding ability
apotransferrin
  iron removed from the iron complex: over 45%

## Cc1c([O-])c(=O)ccn1CCO.Cc1c([O-])c(=O)ccn1CCO.Cc1c([O-])c(=O)ccn1CCO.[Fe+3] [Fe^III complex of 3-hydroxy-1-(2'-hydroxyethyl)-2-methylpyrid-4-one]
Human erythrocytes
  Amount of complex entering erythrocytes: < 5 n.mole

## COC(=O)CCn1ccc(=O)c([O-])c1C.COC(=O)CCn1ccc(=O)c([O-])c1C.COC(=O)CCn1ccc(=O)c([O-])c1C.[Fe+3] [Fe^III complex of 3-hydroxy-1-(2'-methoxycarbonylethyl)-2-methylpyrid-4-one]
Human erythrocytes
  Amount of complex entering erythrocytes: 25 n.mole

## Cc1c([O-])c(=O)ccn1CCCO.Cc1c([O-])c(=O)ccn1CCCO.Cc1c([O-])c(=O)ccn1CCCO.[Fe+3] [Fe^III complex of 3-hydroxy-1-(3'-hydroxypropyl)-2-methylpyrid-4-one]
Human erythrocytes
  Amount of complex entering erythrocytes: 30 n.mole

## Cc1c([O-])c(=O)ccn1CCCCO.Cc1c([O-])c(=O)ccn1CCCCO.Cc1c([O-])c(=O)ccn1CCCCO.[Fe+3] [Fe^III complex of 3-hydroxy-1-(4'-hydroxybutyl)-2-methylpyrid-4-one]
Human erythrocytes
  Amount of complex entering erythrocytes: 40 n.mole

## Cc1c([O-])c(=O)ccn1CCCCCO.Cc1c([O-])c(=O)ccn1CCCCCO.Cc1c([O-])c(=O)ccn1CCCCCO.[Fe+3] [Fe^III complex of 3-hydroxy-1-(5'-hydroxypentyl)-2-methylpyrid-4-one]
Human erythrocytes
  Amount of complex entering erythrocytes: 44 n.mole

## CC(C)NC(=O)Cn1cccc([O-])c1=O.CC(C)NC(=O)Cn1cccc([O-])c1=O.CC(C)NC(=O)Cn1cccc([O-])c1=O.[Fe+3] [Fe^III complex of 3-hydroxy-1-[N-(2'-methylethyl)-carbamoylmethyl]-pyrid-2-one]
Human erythrocytes
  Amount of complex entering erythrocytes: 52 n.mole

## COC(=O)Cn1cccc([O-])c1=O.COC(=O)Cn1cccc([O-])c1=O.COC(=O)Cn1cccc([O-])c1=O.[Fe+3] [Fe^III complex of 3-hydroxy-1-methoxycarbonylmethylpyrid-2-one]
Human erythrocytes
  Amount of complex entering erythrocytes: 230 n.mole

## Cn1cc([O-])c(=O)cc1CO.Cn1cc([O-])c(=O)cc1CO.Cn1cc([O-])c(=O)cc1CO.[Fe+3] [Fe^III complex of 3-hydroxy-6-hydroxymethyl-1-methylpyrid-4-one]
Human erythrocytes
  Amount of complex entering erythrocytes: < 5 n.mole

## Fe^III complex of 1-carboxymethyl-3-hydroxy-2-methylpyrid-4-one
Human erythrocytes
  Amount of complex entering erythrocytes: < 5 n.mole
[2]
  Kpart values (in words): low Kpart values
